Patent publication US20230192617A1, “AZABICYCLIC(THIO)AMIDES AS FUNGICIDAL COMPOUNDS” (Bayer CropScience Aktiengesellschaft, priority 2020, published 2023)

Tests used:
[1] = Measurement of Log P values by HPLC on reversed phase columns (EEC directive 79/831 Annex V.A8); format: physicochemical; conditions: method [a]: LC-UV, acidic range, 0.1% formic acid in water and acetonitrile as eluent
Outline: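 Reversed-phase HPLC with UV detection per EEC 79/831 Annex V.A8, linear 10–95% acetonitrile gradient. Aqueous eluent: 0.1% formic acid (acidic), 0.001 M ammonium acetate (neutral), or 0.1% phosphoric acid (acidic); multiple values in one method joined by "+".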

Alternaria brassicae = assay: In vivo preventive test on Alternaria brassicae (leaf spot on radish or cabbage); conditions: 500 ppm of active ingredient, preventive spray on radish or cabbage, evaluated 3 to 4 days after inoculation, read-out: efficacy
Outline: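 Young radish or cabbage plants were sprayed with compound dissolved in DMSO/acetone/Tween 80 and diluted in water; controls received solvent only. Inoculation by spraying A. brassicae spore suspension 24 h later, then 3–4 days at 20 °C and 100% relative humidity.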

[2] = tested on: Colletotrichum lindemuthianum; assay: In vivo preventive test on Colletotrichum lindemuthianum (leaf spot on bean); conditions: 168 h, 500 ppm of active ingredient, preventive spray on bean, evaluated 7 days after inoculation, read-out: efficacy
Description: B-5. In Vivo Preventive Test on Colletotrichum lindemuthianum (Leaf Spot on Bean) [table] The active ingredients were made soluble and homogenized in a mixture of Dimethyl sulfoxide/Acetone/Tween® 80 and then diluted in water to the desired concentration. The young plants of bean were treated by spraying the active ingredient prepared as described above. Control plants were treated only with an aqueous solution of Acetone/Dimethyl sulfoxide/Tween® 80. After 24 hours, the plants were contaminated by spraying the leaves with an aqueous suspension of Colletotrichum lindemuthianum spores. The contaminated bean plants were incubated for 24 hours at 20° C. and at 100% relative humidity and then for 6 days at 20° C. and at 90% relative humidity.

Botrytis cinerea [3] = assay: B-11. Botrytis cinerea in vitro cell test; format: cell-based; conditions: 144 h, 20 ppm of active ingredient, 6 days incubation, liquid culture, absorbance, read-out: efficacy (inhibition of fungal growth)
Outline: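 B. cinerea spores were grown in liquid culture with compound (DMSO ≤1% final). Mycelium growth was measured spectrometrically after 6 days, with inhibition taken as absorbance relative to untreated control wells.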

Alternaria alternata = Alternaria alternata in vitro cell test; format: cell-based; conditions: 120 h, 20 ppm of active ingredient, liquid culture, 5 days incubation, spectrometric measurement of mycelium growth, read-out: efficacy (inhibition of fungal growth)
Outline: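 Liquid culture assay in which A. alternata spores in medium received DMSO-solubilized compound (final DMSO ≤1%). After 5 days, mycelium growth was measured spectrometrically. Inhibition was calculated against fungicide-free control wells.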

Botrytis cinerea [4] = assay: In vivo preventive test on Botrytis cinerea (grey mould); conditions: 500 ppm of active ingredient, preventive spray on gherkin or cabbage, evaluated 4 to 5 days after inoculation, read-out: efficacy
Outline: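 Young gherkin or cabbage plants were sprayed with compound in DMSO/acetone/Tween 80 diluted in water, then inoculated 24 hours later with a B. cinerea spore suspension. Incubation lasted 4 to 5 days: gherkin at 17° C., 90% relative humidity; cabbage at 20° C., 100% relative humidity.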

[5] = tested on: Colletotrichum lindemuthianum; assay: B-8. Colletotrichum lindemuthianum in vitro cell test; format: cell-based; conditions: 144 h, 20 ppm of active ingredient, 6 days incubation, liquid culture, absorbance, read-out: efficacy (inhibition of fungal growth)
Outline: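 Spore suspension of C. lindemuthianum in liquid medium exposed to DMSO-solubilized compounds (final DMSO ≤1%) for 6 days. Mycelial growth read by absorbance, with inhibition calculated relative to compound-free control wells.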

Pyrenophora teres = assay: B-10. Pyrenophora teres in vitro cell test; format: cell-based; conditions: 144 h, 20 ppm of active ingredient, 6 days incubation, liquid culture, absorbance, read-out: efficacy (inhibition of fungal growth)
Outline: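 Liquid-culture assay on a P. teres spore suspension with compounds added to the medium from DMSO solutions, final DMSO ≤1%. Mycelium growth read spectrometrically after 6 days. Inhibition calculated from absorbance against untreated control wells.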

Sphaerotheca fuliginea = assay: In vivo preventive test on Sphaerotheca fuliginea (powdery mildew on cucurbits); conditions: Podosphaera fuliginea, 192 h; 500 ppm of active ingredient; preventive spray on gherkin; evaluated 8 days after inoculation; read-out: efficacy
Description: B-4. in vivo preventive test on Sphaerotheca fuliginea (powdery mildew on cucurbits) [table] The active ingredients were made soluble and homogenized in a mixture of Dimethyl sulfoxide/Acetone/Tween® 80 and then diluted in water to the desired concentration. The young plants of gherkin were treated by spraying the active ingredient prepared as described above. Control plants were treated only with an aqueous solution of Acetone/Dimethyl sulfoxide/Tween® 80. After 24 hours, the plants were contaminated by spraying the leaves with an aqueous suspension of Sphaerotheca fuliginea spores. The contaminated gherkin plants were incubated for 8 days at 20° C. and at 70-80% relative humidity.

With COc1cc([C@@H](F)CNC(=O)c2c(Oc3cccc(Cl)c3)nnc3ccccc23)ccc1Cl (racemic) [I-050] the chromatographic logP ([1]; reversed phase HPLC column) was 3.77, the pest or weed control at 500 ppm (Alternaria brassicae) was 90 to 100% and the pest or weed control at 500 ppm [2] was 80 to 89%. The inhibition at 20 ppm (Botrytis cinerea [3]) was 90 to 100%, the inhibition at 20 ppm (Alternaria alternata) was 90 to 100% and the pest or weed control at 500 ppm (Botrytis cinerea [4]) was 80 to 89%. For the same compound, the inhibition at 20 ppm [5] was 90 to 100%.

With Cc1ccc2c(c1)CCC[C@@H]2NC(=O)c1c(Oc2cccc(C(F)(F)F)c2)nnc2ccccc12 (racemic) [I-078] the chromatographic logP ([1]; reversed phase HPLC column) was 4.47, the pest or weed control at 500 ppm (Alternaria brassicae) was 90 to 100% and the inhibition at 20 ppm (Botrytis cinerea [3]) was 90 to 100%. It also gave an inhibition at 20 ppm (Alternaria alternata) of 90 to 100%, an inhibition at 20 ppm (Pyrenophora teres) of 90 to 100% and a pest or weed control at 500 ppm (Botrytis cinerea [4]) of 90 to 100%. The inhibition at 20 ppm [5] was 90 to 100% and the pest or weed control at 500 ppm (Sphaerotheca fuliginea) was 90 to 100%.

O=C(NCC(F)(F)c1ccc(Cl)cc1)c1c(Oc2cccc(C(F)F)c2)nnc2ccccc12 [I-034] gave a chromatographic logP ([1]; reversed phase HPLC column) of 3.68, a pest or weed control at 500 ppm (Alternaria brassicae) of 90 to 100% and a pest or weed control at 500 ppm [2] of 80 to 89%. It also gave an inhibition at 20 ppm (Alternaria alternata) of 90 to 100%, a pest or weed control at 500 ppm (Botrytis cinerea [4]) of 90 to 100% and an inhibition at 20 ppm [5] of 90 to 100%.

With O=C(NCC(F)(F)c1ccc(C2=CCCC2)cc1Cl)c1c(Oc2cccc(C(F)(F)F)c2)nnc2ccccc12 [I-073] the chromatographic logP ([1]; reversed phase HPLC column) was 5.4, the pest or weed control at 500 ppm (Alternaria brassicae) was 90 to 100% and the pest or weed control at 500 ppm [2] was 80 to 89%. It also gave an inhibition at 20 ppm (Botrytis cinerea [3]) of 90 to 100%, an inhibition at 20 ppm (Pyrenophora teres) of 90 to 100% and a pest or weed control at 500 ppm (Botrytis cinerea [4]) of 90 to 100%.

Work on O=C(NCCc1ccc2c(c1)OCCO2)c1c(Oc2cccc(C(F)(F)F)c2)nnc2ccccc12 [I-086] yielded a chromatographic logP [1] of 3.42, a pest or weed control at 500 ppm (Alternaria brassicae) of 90 to 100% and a pest or weed control at 500 ppm [2] of 90 to 100%. For the same compound, the inhibition at 20 ppm (Botrytis cinerea [3]) was 90 to 100%, the inhibition at 20 ppm (Alternaria alternata) was 90 to 100% and the inhibition at 20 ppm (Pyrenophora teres) was 90 to 100%. It also gave a pest or weed control at 500 ppm (Botrytis cinerea [4]) of 90 to 100% and an inhibition at 20 ppm [5] of 90 to 100%.

O=C(c1c(Oc2cccc(C(F)(F)F)c2)nnc2ccccc12)N(O)CCc1ccc(Cl)cc1 [I-167] showed a chromatographic logP ([1]; reversed phase HPLC column) of 3.84, a pest or weed control at 500 ppm (Alternaria brassicae) of 90 to 100% and a pest or weed control at 500 ppm [2] of 80 to 89%. For the same compound, the inhibition at 20 ppm (Botrytis cinerea [3]) was 90 to 100%, the inhibition at 20 ppm (Pyrenophora teres) was 90 to 100% and the pest or weed control at 500 ppm (Botrytis cinerea [4]) was 70 to 79%. The inhibition at 20 ppm [5] was 80 to 89%.

In the case of O=C(N[C@H]1CCOc2ccccc21)c1c(Oc2cccc(C(F)(F)F)c2)nnc2ccccc12 [I-172], the chromatographic logP ([1]; reversed phase HPLC column) is reported as 3.65, the pest or weed control at 500 ppm (Alternaria brassicae) is reported as 90 to 100% and the inhibition at 20 ppm (Botrytis cinerea [3]) is reported as 90 to 100%. It also gave an inhibition at 20 ppm (Alternaria alternata) of 90 to 100%, an inhibition at 20 ppm (Pyrenophora teres) of 90 to 100% and an inhibition at 20 ppm [5] of 90 to 100%. It also gave a pest or weed control at 500 ppm (Sphaerotheca fuliginea) of 80 to 89%.

For Cc1ccc(C(F)(F)CNC(=O)c2c(Oc3cccc(C(F)(F)F)c3)nnc3cc(F)ccc23)cc1C [I-175], the chromatographic logP ([1]; reversed phase HPLC column) was 4.62, the pest or weed control at 500 ppm (Alternaria brassicae) was 90 to 100% and the pest or weed control at 500 ppm [2] was 80 to 89%. The inhibition at 20 ppm (Botrytis cinerea [3]) was 90 to 100%, the inhibition at 20 ppm (Alternaria alternata) was 90 to 100% and the inhibition at 20 ppm (Pyrenophora teres) was 90 to 100%. It also gave an inhibition at 20 ppm [5] of 90 to 100%.

Work on C#Cc1cccc(Oc2cnc3ccccc3c2C(=O)NCC(F)(F)c2ccc(C)cc2C)c1 [I-215] yielded a chromatographic logP ([1]; reversed phase HPLC column) of 4.13, a pest or weed control at 500 ppm (Alternaria brassicae) of 80 to 89% and an inhibition at 20 ppm (Botrytis cinerea [3]) of 90 to 100%. The inhibition at 20 ppm (Alternaria alternata) was 80 to 89%, the inhibition at 20 ppm (Pyrenophora teres) was 90 to 100% and the pest or weed control at 500 ppm (Botrytis cinerea [4]) was 90 to 100%. The inhibition at 20 ppm [5] was 90 to 100% and the pest or weed control at 500 ppm (Sphaerotheca fuliginea) was 90 to 100%.

In the case of Cc1ccc(C(F)(F)CNC(=O)c2c(Oc3cccc(Br)c3F)cnc3ccccc23)c(C)c1 [I-225], the chromatographic logP ([1]; reversed phase HPLC column) is reported as 4.43, the pest or weed control at 500 ppm (Alternaria brassicae) is reported as 70 to 79% and the inhibition at 20 ppm (Botrytis cinerea [3]) is reported as 90 to 100%. It also gave an inhibition at 20 ppm (Alternaria alternata) of 90 to 100%, an inhibition at 20 ppm (Pyrenophora teres) of 90 to 100% and a pest or weed control at 500 ppm (Botrytis cinerea [4]) of 90 to 100%. For the same compound, the inhibition at 20 ppm [5] was 90 to 100% and the pest or weed control at 500 ppm (Sphaerotheca fuliginea) was 90 to 100%.

Cc1ccc(C(F)(F)CNC(=O)c2c(Oc3cccc(C(F)(F)F)c3)nnc3c2CCC3(C)C)c(C)c1 [I-232] showed a chromatographic logP ([1]; reversed phase HPLC column) of 4.85, a pest or weed control at 500 ppm (Alternaria brassicae) of 80 to 89% and an inhibition at 20 ppm (Botrytis cinerea [3]) of 90 to 100%. For the same compound, the inhibition at 20 ppm (Pyrenophora teres) was 90 to 100%, the pest or weed control at 500 ppm (Botrytis cinerea [4]) was 90 to 100% and the inhibition at 20 ppm [5] was 70 to 79%. It also gave a pest or weed control at 500 ppm (Sphaerotheca fuliginea) of 90 to 100%.
